Experimental data published in BindingDB's records for doi:10.1074/jbc.M111.274068 (Astrazeneca, 2011).

Key:
Conditions in all cases: pH 7.35
[1] = biological target: Bifunctional protein GlmU (Haemophilus influenzae (strain ATCC 51907 / DSM 11121 / KW20 / Rd), UniProt P43889); test: Inhibition Assay
From the text: (§1) Inhibition assay using GlmU bifuncation enzyme with various bacterial strains.

[2] = biological target: Bifunctional protein GlmU (Staphylococcus aureus (strain COL), UniProt Q5HIH6); test: Inhibition Assay
From the text: as §1

[3] = biological target: Bifunctional protein GlmU (Streptococcus pneumoniae (strain ATCC BAA-255 / R6), UniProt Q8DQ18); test: Inhibition Assay
Sequence of Bifunctional protein GlmU (Streptococcus pneumoniae (strain ATCC BAA-255 / R6), UniProt Q8DQ18) (Q8DQ18 whole entry): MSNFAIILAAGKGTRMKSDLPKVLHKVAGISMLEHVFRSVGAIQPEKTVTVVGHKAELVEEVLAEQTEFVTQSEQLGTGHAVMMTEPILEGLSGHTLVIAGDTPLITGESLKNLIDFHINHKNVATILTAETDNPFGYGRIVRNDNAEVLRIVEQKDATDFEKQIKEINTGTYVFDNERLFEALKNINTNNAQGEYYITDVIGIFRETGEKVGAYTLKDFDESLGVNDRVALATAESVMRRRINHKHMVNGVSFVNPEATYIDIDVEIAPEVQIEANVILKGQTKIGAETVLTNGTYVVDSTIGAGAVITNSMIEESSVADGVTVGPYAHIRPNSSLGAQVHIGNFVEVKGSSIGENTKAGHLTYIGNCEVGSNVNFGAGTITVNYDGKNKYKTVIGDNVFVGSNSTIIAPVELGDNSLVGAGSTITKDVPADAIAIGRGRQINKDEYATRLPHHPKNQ
From the text: as §1

[4] = biological target: Bifunctional protein GlmU (Escherichia coli (strain K12), UniProt P0ACC7); test: Inhibition Assay
Sequence of Bifunctional protein GlmU (Escherichia coli (strain K12), UniProt P0ACC7) (P0ACC7 whole entry): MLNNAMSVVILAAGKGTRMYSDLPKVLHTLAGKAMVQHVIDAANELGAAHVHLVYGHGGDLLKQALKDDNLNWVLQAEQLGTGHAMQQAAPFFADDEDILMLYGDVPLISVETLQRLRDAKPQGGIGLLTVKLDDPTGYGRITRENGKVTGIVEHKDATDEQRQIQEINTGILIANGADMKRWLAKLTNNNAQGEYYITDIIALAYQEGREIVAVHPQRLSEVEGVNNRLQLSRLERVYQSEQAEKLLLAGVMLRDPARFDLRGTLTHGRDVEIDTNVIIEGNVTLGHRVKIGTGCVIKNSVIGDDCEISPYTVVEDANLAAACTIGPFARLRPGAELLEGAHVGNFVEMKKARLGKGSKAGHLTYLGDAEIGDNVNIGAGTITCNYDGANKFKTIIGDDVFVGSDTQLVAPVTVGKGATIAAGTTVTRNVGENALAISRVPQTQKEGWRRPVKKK
From the text: as §1

[5] = biological target: Bifunctional protein GlmU (Escherichia coli) (UniProt P0ACC7); test: Inhibition assay using GlmU bifuncation enzyme with various bacterial strains.
Sequence of Bifunctional protein GlmU (Escherichia coli) (P0ACC7 whole entry, looked up): as the sequence (P0ACC7 whole entry) above

Sequence of Bifunctional protein GlmU (Haemophilus influenzae (strain ATCC 51907 / DSM 11121 / KW20 / Rd), UniProt P43889) (P43889 whole entry): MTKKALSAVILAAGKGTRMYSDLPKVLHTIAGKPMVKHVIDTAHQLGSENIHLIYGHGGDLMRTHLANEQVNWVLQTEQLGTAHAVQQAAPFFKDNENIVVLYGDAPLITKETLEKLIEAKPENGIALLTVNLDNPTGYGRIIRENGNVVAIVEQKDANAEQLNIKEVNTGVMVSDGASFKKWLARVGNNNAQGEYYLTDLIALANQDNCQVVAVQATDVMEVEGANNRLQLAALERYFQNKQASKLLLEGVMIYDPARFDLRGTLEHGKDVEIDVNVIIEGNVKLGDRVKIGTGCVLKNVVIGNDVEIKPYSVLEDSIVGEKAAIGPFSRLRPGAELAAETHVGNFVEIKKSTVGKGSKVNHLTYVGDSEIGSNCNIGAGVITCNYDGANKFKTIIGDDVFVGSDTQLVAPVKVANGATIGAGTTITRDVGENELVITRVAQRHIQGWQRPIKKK

IC50 [1]	IC50 [2]	IC50 [3]	IC50 [4]	Kd [5]	Compound
0.4 µM	> 200 µM	40 µM	–	–	COc1cc(OC)c(S(=O)(=O)N(c2ccccc2)c2ccc(N)cc2)cc1NC(=O)CCC(=O)O [Sulfonamide, 3]
6.4 µM	–	> 200 µM	–	1.9 µM	COc1cc(OC)c(S(=O)(=O)N(C)c2ccccc2)cc1NC(C)=O
0.023 µM	> 200 µM	15 µM	0.007 µM	–	COc1cc(OC)c(S(=O)(=O)N2c3ccccc3Oc3ccccc32)cc1NC(=O)CCC(=O)O [Sulfonamide, 5]
7.8 µM	> 200 µM	> 200 µM	2.1 µM	–	COc1cc(OC)c(S(=O)(=O)N2c3ccccc3CC2C)cc1NC(C)=O (stereo not drawn)

Compound	IC50 [1]	IC50 [2]	IC50 [3]	IC50 [4]	Kd [5]
COc1cc(O)c(S(=O)(=O)N2c3ccccc3CCC2C)cc1NC(=O)CCC(=O)O (stereo not drawn) [Sulfonamide, 4]	0.28 µM	> 200 µM	4.7 µM	0.058 µM	–
